Test results from patent publication US20260306506A1, “PYRIDO[4,3-D]PYRIMIDINE COMPOUNDS” (Pfizer Inc., priority 2023, published 2026).

What was measured:
[1] = system: H358 (non-small cell lung cancer cell line); test: KRAS Cell Titer Glo (CTG) viability assay, H358; type: cell-based; conditions: H358, 7-day, geometric mean when n>1
From the text: (§1) The CellTiter-Glo® (CTG) Luminescent Cell Viability Assay is a homogeneous method of determining the number of viable cells in culture based on quantitation of the ATP present, an indicator of metabolically active cells. The CTG is designed for use with multi-well formats, making it ideal for automated high-throughput screening (HTS), cell proliferation and cytotoxicity assays. The homogeneous assay procedure involves adding the single reagent (CellTiter-Glo® Reagent) directly to cells cultured in serum-supplemented medium. Cell washing, removal of medium and multiple pipetting steps are not required. The system detects as few as 15 cells per well in a 384-well format in 10 minutes after adding reagent and mixing.
(§2) Cells are grown in humidified 5% CO2 incubator at 37° C. using the culture conditions outlined below. All cell culture media reagents were purchased from Gibco. Cell lines purchased from ATCC: H358 (non-small cell lung cancer cell line), SW620 (colorectal cancer cell line), PANC08.13 (RPM11640+10% FBS+10 units/ml Insulin, pancreatic cancer cell line). Test and control compounds are dispensed as nanoliter drops according to desired final concentrations in 0.1% DMSO using Echo Acoustic Dispenser onto 384 assay plates (Corning, Cat #3764) prior to cell seeding. Cells were seeded in 40 μL volume per well at the following cell densities (cells per well): H358 (300), SW620 (750), PANC 08.13 (600). Cells are incubated in the presence of compound for 7-days. Viability is determined on Day 7 using CellTiter-Glo® (CTG) Luminescent Cell Viability Assay (Promega). CTG is added to a final volume of 20 μl per well and incubated at room temperature for 15 minutes before luminescence is captured using an EnVision Reader with LUM384 US protocol. Data is analyzed using Activity Base to determine compound response and will be represented either as a percent effect (PCTEFF) or percent control (PCTOCTL) as described: Zero percent effect control (ZPE) (Negative control)—100% DMSO. Hundred percent effect (HPE) (Positive control)—1 μM Trametinib (GSK1120212, MEK inhibitor) (4 nl of 10 mM and 36 nl of DMSO per well). The following equations/nomenclature are used (% Effect; PCTEFF) and (% of Control; PCTOCTL): PCTEFF: 100*(Raw_Data_Value−HPE/ZPE−HPE), PCTOCTL: 100*Raw_Data_Value/User_Defined_Array), where the User_Defined_Array is either summarized HPE or ZPE.

[2] = system: SW620 (colorectal cancer cell line); test: KRAS Cell Titer Glo (CTG) viability assay, SW620; type: cell-based; conditions: SW620, 7-day, geometric mean when n>1
From the text: as §1, §2

[3] = system: PANC08.13 (pancreatic cancer cell line); test: KRAS Cell Titer Glo (CTG) viability assay, Panc08.13; type: cell-based; conditions: Panc08.13, 7-day, geometric mean when n>1
From the text: as §1, §2

[4] = molecular target: T1, G12V GTPγS KRAS (aa2-184) (Homo sapiens, UniProt P01116, G12V); test: SPR binding (Biacore), GTPγS-loaded KRAS G12V; conditions: for Kd: 10° C., geometric mean when n>1, read-out: KRasGTPgS G12V SPR KD; for KRasGTPgS G12V SPR t1/2: dissociative half-life, t1/2=0.693/koff
T1 construct: G12VGDP KRAS (aa2-184); made in house
From the text: (§3) No additional regeneration was used.
(§4) Compound dissociation was monitored for at least 3600 seconds. […] No additional regeneration was used.

[5] = molecular target: T2, G12C GTPγS KRAS (aa2-184) (Homo sapiens, UniProt P01116, G12C); test: SPR binding (Biacore), GTPγS-loaded KRAS G12C; conditions: for Kd: 10° C., geometric mean when n>1, read-out: KRasGTPgS G12C SPR KD; for KRasGTPgS G12C SPR t1/2: dissociative half-life, t1/2=0.693/koff
T2 construct: G12CGDP KRAS (aa2-184); made in house
From the text: as §3, §4

[6] = molecular target: T3, G12D GTPγS KRAS (aa1-185) (Homo sapiens, UniProt P01116, G12D); test: SPR binding (Biacore), GTPγS-loaded KRAS G12D; conditions: for Kd: 10° C., geometric mean when n>1, read-out: KRasGTPgS G12D SPR KD; for KRasGTPgS G12D SPR t1/2: dissociative half-life, t1/2=0.693/koff
T3 construct: G12DGDP KRAS (aa1-185); made in house
From the text: as §3, §4

[7] = molecular target: T4, WT GTPγS KRAS (aa1-185) (Homo sapiens, UniProt P01116); test: SPR binding (Biacore), GTPγS-loaded WT KRAS; conditions: for Kd: 10° C., geometric mean when n>1, read-out: KRasGTPgS SPR KD; for KRasGTPgS SPR t1/2: dissociative half-life, t1/2=0.693/koff
T4 construct: wild-type (WT) KRASGDP (aa1-185); made in house
From the text: as §3, §4

[8] = molecular target: T5, wild-type (WT) KRAS GDP (aa1-185) (Homo sapiens, UniProt P01116); test: SPR binding (Biacore), GDP-loaded WT KRAS; conditions: 10° C., geometric mean when n>1
T5 construct: wild-type (WT) KRASGDP (aa1-185); made in house
From the text: as §3, §4

[9] = molecular target: G12V GDP KRAS (aa2-184) (Homo sapiens, UniProt P01116, G12V); test: biochemical
Description: (§5) The binding affinity and kinetics were measured by Surface Plasmon Resonance (SPR) using Biacore 8K or 8K+ (Cytiva, Marlborough, MA) instruments. Recombinant, C-terminal site-specific biotinylated, wild-type (WT) KRASGDP (aa1-185), G12DGDP KRAS (aa1-185), G12CGDP KRAS (aa2-184), G12VGDP KRAS (aa2-184), WT HRASGDP (aa2-184) and WT NRASGDP (aa2-185) proteins were purified in presence of 1 μM GDP. The GDP-loaded KRAS proteins then went through nucleotide exchange with GTPγS (a non-hydrolysable analog of GTP) in the presence of alkaline phosphatase beads to obtain WTGTPγS KRAS (aa1-185), G12DGTPγS KRAS (aa1-185), G12CGTPγS KRAS (aa2-184), G12VGTPγS KRAS (aa2-184), WT HRASGTPγS (aa2-184) and WT NRASGTPγS (aa2-185). Binding measurements were performed parallelly in sets of either WT/G12D/G12C/G12V KRAS or WT K/H/N RAS proteins in GDP- and/or GTPγS-loaded forms, respectively.
(§6) Biacore instrument was desorbed and docked with a Series S Sensor Chip SA. […] Compound binding kinetics were measured in either multi-cycle or single-cycle kinetic format.
(§7) A 2-fold, 10-point serial dilution of test compounds was set-up in a 96-well microplate (Greiner; Cat #650101) with a top concentration of either 10 μM or 100 μM. Binding kinetics was measured at 10° C. by injecting serial dilution of compounds onto both reference and RAS immobilized channels at a flow rate of 100 μL/min and association time of 90 seconds. Compound dissociation was monitored for at least 400 seconds during each cycle. […]
(§8) A 3-fold, 6-point serial dilution of compounds was set-up in a deep 96-well microplate (Greiner Bio; Cat #780201) with the highest concentration of 1 μM (concentration range: 0.004-1 μM). Binding kinetics was measured at 10° C. by injecting serial dilutions of compounds in increasing order onto reference as well as RAS immobilized channels at a flow rate of 100 μL/min and association time of 120 seconds. Compound dissociation was monitored for at least 3600 seconds. […]
(§9) Both MCK and SCK data were processed and analyzed using Biacore Insight evaluation software (Cytiva, Marlborough, MA)). […]

[10] = molecular target: G12D GDP KRAS (aa1-185) (Homo sapiens, UniProt P01116, G12D); test: biochemical
Description: as §5, §6, §7, §8, §9

[11] = molecular target: G12C GDP KRAS (aa2-184) (Homo sapiens, UniProt P01116, G12C); test: biochemical
Description: as §5, §6, §7, §8, §9

[12] = Homo sapiens, PANC-08-13, 168 h

| Structure (SMILES) | IC50 ([1]; Homo sapiens, NCI-H358, 168 h) [nM] | IC50 ([2]; Homo sapiens, SW-620, 168 h) [nM] | IC50 [3, 12] [nM] | other results |
| --- | --- | --- | --- | --- |
| C#Cc1cccc2cc(O)cc(-c3ncc4c(N5C[C@@H]6C[C@H](C5)[C@H](O)C6)nc(OC[C@@]56CCCN5C[C@H](F)C6)nc4c3F)c12 [Example 9, (1R,5R,6R)-3-[7-(8-ethynyl-3-hydroxynaphthalen-1-yl)-8-fluoro-2-{[(2R,7aS)-2-fluorotetrahydro-1H-pyrrolizin-7a(5H)-yl]methoxy}pyrido[4,3-d]pyrimidin-4-yl]-3-azabicyclo[3.2.1]octan-6-ol] | 112 | 166 | 12.3 | – |
| C#Cc1c(F)ccc2cc(O)cc(-c3ncc4c(N5C[C@@H]6C[C@H](C5)[C@H](O)C6)nc(OC[C@@]56CCCN5C[C@H](F)C6)nc4c3F)c12 [Example 10, (1R,5R,6R)-3-[7-(8-ethynyl-7-fluoro-3-hydroxynaphthalen-1-yl)-8-fluoro-2-{[(2R,7aS)-2-fluorotetrahydro-1H-pyrrolizin-7a(5H)-yl]methoxy}pyrido[4,3-d]pyrimidin-4-yl]-3-azabicyclo[3.2.1]octan-6-ol] | 26.9 | 35.7 | 8.15 | – |
| N#CC[C@@H]1CCCN(c2nc(OC[C@@]34CCCN3C[C@H](F)C4)nc3c(F)c(-c4cc(O)cc5ccc(F)c(F)c45)ncc23)C1 [Example 12, {(3S)-1-[7-(7,8-difluoro-3-hydroxynaphthalen-1-yl)-8-fluoro-2-{[(2R,7aS)-2-fluorotetrahydro-1H-pyrrolizin-7a(5H)-yl]methoxy}pyrido[4,3-d]pyrimidin-4-yl]piperidin-3-yl}acetonitrile] | 115 | 136 | 19.8 | – |
| Oc1cc(-c2ncc3c(N4C[C@@H]5C[C@H](C4)[C@H](O)C5)nc(OC[C@@]45CCCN4C[C@H](F)C5)nc3c2F)c2c(F)c(F)ccc2c1 [Example 14, (1R,5R,6R)-3-[7-(7,8-difluoro-3-hydroxynaphthalen-1-yl)-8-fluoro-2-{[(2R,7aS)-2-fluorotetrahydro-1H-pyrrolizin-7a(5H)-yl]methoxy}pyrido[4,3-d]pyrimidin-4-yl]-3-azabicyclo[3.2.1]octan-6-ol] | 41.6 | 35.3 | 10.8 | – |
| C#Cc1c(F)ccc2cc(O)cc(-c3ncc4c(N5CCC[C@@H](CC#N)C5)nc(OC[C@@]56CCCN5C[C@H](F)C6)nc4c3F)c12 [Example 15, {(3S)-1-[7-(8-ethynyl-7-fluoro-3-hydroxynaphthalen-1-yl)-8-fluoro-2-{[(2R,7aS)-2-fluorotetrahydro-1H-pyrrolizin-7a(5H)-yl]methoxy}pyrido[4,3-d]pyrimidin-4-yl]piperidin-3-yl}acetonitrile] | 493 | 871 | 121 | – |
| Oc1cc(-c2ncc3c(N4C[C@@H]5C[C@H](C4)[C@H](O)C5)nc(OC[C@@]45CCCN4C[C@H](F)C5)nc3c2F)c2c(Cl)cccc2c1 [Example 20, (1R,5R,6R)-3-[7-(8-chloro-3-hydroxynaphthalen-1-yl)-8-fluoro-2-{[(2R,7aS)-2-fluorotetrahydro-1H-pyrrolizin-7a(5H)-yl]methoxy}pyrido[4,3-d]pyrimidin-4-yl]-3-azabicyclo[3.2.1]octan-6-ol] | 142 | 164 | 45.2 | – |
| C#Cc1c(F)c(F)cc2cc(O)cc(-c3nc4c5c(nc(OC[C@@]67CCCN6C[C@H](F)C7)nc5c3F)N3CCCC[C@H]3CO4)c12 [Example 33, 5-ethynyl-6,7-difluoro-4-[(8aS)-4-fluoro-2-{[(2R,7aS)-2-fluorotetrahydro-1H-pyrrolizin-7a(5H)-yl]methoxy}-8,8a,9,10,11,12-hexahydro-7-oxa-1,3,6,12a-tetraazabenzo[4,5]cyclohepta[1,2,3-de]naphthalen-5-yl]naphthalen-2-ol] | – | – | – | IC50 [1]: 3.9 nM; Kd [4]: 0.172 nM; KRasGTPgS G12V SPR t1/2 [4]: 12.7 h; Kd [5]: 0.205 nM; KRasGTPgS G12C SPR t1/2 [5]: 17.6 h; IC50 [2]: 6.6 nM; Kd [6]: 0.119 nM; KRasGTPgS G12D SPR t1/2 [6]: 9.9 h; Kd [7]: 0.168 nM; KRasGTPgS SPR t1/2 [7]: 12.7 h; IC50 [3]: 1.1 nM |

The next lines start with results.

| IC50 ([1]; Homo sapiens, NCI-H358, 168 h) [nM] | IC50 ([2]; Homo sapiens, SW-620, 168 h) [nM] | IC50 [3, 12] [nM] | Structure (SMILES) | other results |
| --- | --- | --- | --- | --- |
| 74 | 46 | 1.2 | C#Cc1c(F)ccc2cc(O)cc(-c3nc4c5c(nc(OC[C@@]67CCCN6C[C@H](F)C7)nc5c3F)N3CCCC[C@H]3CO4)c12 [Example 23, 5-ethynyl-6-fluoro-4-[(8aS)-4-fluoro-2-{[(2R,7aS)-2-fluorotetrahydro-1H-pyrrolizin-7a(5H)-yl]methoxy}-8,8a,9,10,11,12-hexahydro-7-oxa-1,3,6,12a-tetraazabenzo[4,5]cyclohepta[1,2,3-de]naphthalen-5-yl]naphthalen-2-ol] | – |
| – | – | 2.1 | C#Cc1c(F)c(F)cc2cc(O)cc(-c3nc4c5c(nc(OC[C@@]67CCCN6C[C@H](F)C7)nc5c3F)N3CCCC[C@H]3CO4)c12 [Example 32, 5-ethynyl-6,7-difluoro-4-[(8aS)-4-fluoro-2-{[(2R,7aS)-2-fluorotetrahydro-1H-pyrrolizin-7a(5H)-yl]methoxy}-8,8a,9,10,11,12-hexahydro-7-oxa-1,3,6,12a-tetraazabenzo[4,5]cyclohepta[1,2,3-de]naphthalen-5-yl]naphthalen-2-ol] | IC50 [1]: 48 nM; IC50 [2]: 45 nM |
| 2.3 | 3.8 | < 0.7 | C=C1CN2CCC[C@@]2(COc2nc3c4c(nc(-c5cc(O)cc6ccc(F)c(CC)c56)c(F)c4n2)OC[C@@H]2COCCCN32)C1 [Example 35, 5-ethyl-6-fluoro-4-[(8aS)-4-fluoro-2-{[(7aS)-2-methylidenetetrahydro-1H-pyrrolizin-7a(5H)-yl]methoxy}-8a, 9,12,13-tetrahydro-8H,11H-7,10-dioxa-1,3,6,13a-tetraazanaphtho[1,8-ab]heptalen-5-yl]naphthalen-2-ol] | Kd [4]: 0.209 nM; KRasGTPgS G12V SPR t1/2 [4]: 10.3 h; Kd [8]: 0.007 nM; Kd [9]: 0.048 nM; Kd [5]: 0.181 nM; KRasGTPgS G12C SPR t1/2 [5]: 17.8 h; Kd [10]: 0.011 nM; Kd [6]: 0.092 nM; KRasGTPgS G12D SPR t1/2 [6]: 11.3 h; Kd [7]: 0.184 nM; KRasGTPgS SPR t1/2 [7]: 12.4 h; Kd [11]: 0.009 nM |
